Assay results as given in patent publication US9598446B2, “Amino compounds for treatment of complement mediated disorders” (priority 2014, dated 2017).

Target: Human factor D (Homo sapiens (Human), UniProt P00746)
Experiment: Human Factor D Assay
Type: biochemical
Settings: human factor D 80 nM, substrate Z-L-Lys-SBz1 and DTNB 100 μM each, pH 7.5; read-out: IC50
Method: Human factor D (purified from human serum, Complement Technology, Inc.) at 80 nM final concentration is incubated with test compound at various concentrations for 5 minutes at room temperature in 50 mM Tris, 1M NaCl, pH 7.5. A synthetic substrate Z-L-Lys-SBz1 and DTNB (Ellman's reagent) are added to final concentrations of 100 μM each. The increase in color is recorded at OD405 nm in a microplate in kinetic mode over 30 minutes with 30 second time points in a spectrofluorimeter. IC50 values are calculated by non-linear regression from the percentage of inhibition of complement factor D activity as a function of test compound concentration.

Human factor D, sequence (P00746 26-253): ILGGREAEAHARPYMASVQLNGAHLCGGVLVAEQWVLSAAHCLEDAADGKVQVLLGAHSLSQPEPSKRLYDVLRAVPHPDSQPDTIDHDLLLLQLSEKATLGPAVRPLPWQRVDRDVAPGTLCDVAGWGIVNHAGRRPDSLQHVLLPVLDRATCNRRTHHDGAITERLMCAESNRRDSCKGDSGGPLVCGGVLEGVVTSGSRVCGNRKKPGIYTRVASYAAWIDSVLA

SMILES	IC50 [µM]
CC(=O)c1cn(CC(=O)N2C[C@H](F)C[C@H]2C(=O)Nc2cc(C)nn2-c2ccccc2F)c2ccc(Nc3cncnc3)cc12 [Compound 57, (2S,4R)-1-(2-(3-acetyl-5-(pyrimidin-5-ylamino)-1H-indol-1-yl)acetyl)-4-fluoro-N-(1-(2-fluorophenyl)-3-methyl-1H-pyrazol-5-yl)pyrrolidine-2-carboxamide]	< 1
CC(=O)c1cn(CC(=O)N2C[C@H](F)C[C@H]2C(=O)NC2CCCN(c3ccccc3Cl)C2=O)c2ccc(Nc3cncnc3)cc12 (stereo partly drawn) [Compound 58, (2S,4R)-1-(2-(3-acetyl-5-(pyrimidin-5-ylamino)-1H-indol-1-yl)acetyl)-N-(1-(2-chlorophenyl)-2-oxopiperidin-3-yl)-4-fluoropyrrolidine-2-carboxamide]	< 1
CC(=O)c1cn(CC(=O)N2C[C@H](F)C[C@H]2C(=O)NCc2ccncc2)c2ccc(Nc3cncnc3)cc12 [Compound 59, (2S,4R)-1-(2-(3-acetyl-5-(pyrimidin-5-ylamino)-1H-indol-1-yl)acetyl)-4-fluoro-N-(pyridin-4-ylmethyl)pyrrolidine-2-carboxamide]	< 1
CC(=O)c1cn(CC(=O)N2C[C@H](F)C[C@H]2C(=O)Nc2nc(-c3cccc(Cl)c3)ns2)c2ccc(Nc3cncnc3)cc12 [Compound 60, (2S,4R)-1-(2-(3-acetyl-5-(pyrimidin-5-ylamino)-1H-indol-1-yl)acetyl)-N-(3-(3-chlorophenyl)-1,2,4-thiadiazol-5-yl)-4-fluoropyrrolidine-2-carboxamide]	> 10
CC(=O)c1cn(CC(=O)N2C[C@H](F)C[C@H]2C(=O)Nc2ccccc2-c2nncn2C)c2ccc(Nc3cncnc3)cc12 [Compound 61, (2S,4R)-1-(2-(3-acetyl-5-(pyrimidin-5-ylamino)-1H-indol-1-yl)acetyl)-4-fluoro-N-(2-(4-methyl-4H-1,2,4-triazol-3-yl)phenyl)pyrrolidine-2-carboxamide]	> 10
CC(=O)c1cn(CC(=O)N2C[C@H](F)C[C@H]2C(=O)Nc2noc(-c3ccccc3Cl)n2)c2ccc(Nc3cncnc3)cc12 [Compound 62, (2S,4R)-1-(2-(3-acetyl-5-(pyrimidin-5-ylamino)-1H-indol-1-yl)acetyl)-N-(5-(2-chlorophenyl)-1,2,4-oxadiazol-3-yl)-4-fluoropyrrolidine-2-carboxamide]	< 1
CC(=O)c1cn(CC(=O)N2C[C@H](F)C[C@H]2C(=O)NC2CCCN(c3cc(C)ccc3F)C2=O)c2ccc(Nc3cncnc3)cc12 (stereo partly drawn) [Compound 63, (2S,4R)-1-(2-(3-acetyl-5-(pyrimidin-5-ylamino)-1H-indol-1-yl)acetyl)-4-fluoro-N-(1-(2-fluoro-5-methylphenyl)-2-oxopiperidin-3-yl)pyrrolidine-2-carboxamide]	< 1
CC(=O)c1cn(CC(=O)N2C[C@H](F)C[C@H]2C(=O)NC2CCN(c3ccn(C)n3)C2=O)c2ccc(Nc3cncnc3)cc12 (stereo partly drawn) [Compound 64, (2S,4R)-1-(2-(3-acetyl-5-(pyrimidin-5-ylamino)-1H-indol-1-yl)acetyl)-4-fluoro-N-(1-(1-methyl-1H-pyrazol-3-yl)-2-oxopyrrolidin-3-yl)pyrrolidine-2-carboxamide]	< 1
CC(=O)c1cn(CC(=O)N2C[C@H](F)C[C@H]2C(=O)Nc2cccc(O)n2)c2ccc(Nc3cncnc3)cc12 [Compound 68, (2S,4R)-1-(2-(3-acetyl-5-(pyrimidin-5-ylamino)-1H-indol-1-yl)acetyl)-4-fluoro-N-(6-hydroxypyridin-2-yl)pyrrolidine-2-carboxamide]	< 1
